From patent publication US12209081B2 (Katholieke Universiteit Leuven, priority 2020, dated 2025)

The molecules below were run against mouse TRPM3α2 (mTRPM3) ion channel (Mus musculus (Mouse), UniProt J9SQF3) (assay: TRPM3 ion channel driven Ca2+ uptake, Fluo-4 AM assay, mTRPM3alpha2 overexpressing flip-in HEK293 cells stimulated with pregnenolone sulfate). Conditions: PS (50 μM) stimulated, cpds. 400-499.
Type: cell-based
Summary of the method: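 Flip-in HEK293 cells loaded with Fluo-4 AM were added to plates holding compound plus 50 μM pregnenolone sulfate in Ca2+-containing Krebs buffer. Fluorescence (ex 485/em 535 nm) read directly after cell addition; % inhibition relative to PS-stimulated vehicle and positive-control inhibitor.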

mouse TRPM3α2 (mTRPM3) ion channel, sequence (J9SQF3 other isoform, or with tags, fused parts or gaps): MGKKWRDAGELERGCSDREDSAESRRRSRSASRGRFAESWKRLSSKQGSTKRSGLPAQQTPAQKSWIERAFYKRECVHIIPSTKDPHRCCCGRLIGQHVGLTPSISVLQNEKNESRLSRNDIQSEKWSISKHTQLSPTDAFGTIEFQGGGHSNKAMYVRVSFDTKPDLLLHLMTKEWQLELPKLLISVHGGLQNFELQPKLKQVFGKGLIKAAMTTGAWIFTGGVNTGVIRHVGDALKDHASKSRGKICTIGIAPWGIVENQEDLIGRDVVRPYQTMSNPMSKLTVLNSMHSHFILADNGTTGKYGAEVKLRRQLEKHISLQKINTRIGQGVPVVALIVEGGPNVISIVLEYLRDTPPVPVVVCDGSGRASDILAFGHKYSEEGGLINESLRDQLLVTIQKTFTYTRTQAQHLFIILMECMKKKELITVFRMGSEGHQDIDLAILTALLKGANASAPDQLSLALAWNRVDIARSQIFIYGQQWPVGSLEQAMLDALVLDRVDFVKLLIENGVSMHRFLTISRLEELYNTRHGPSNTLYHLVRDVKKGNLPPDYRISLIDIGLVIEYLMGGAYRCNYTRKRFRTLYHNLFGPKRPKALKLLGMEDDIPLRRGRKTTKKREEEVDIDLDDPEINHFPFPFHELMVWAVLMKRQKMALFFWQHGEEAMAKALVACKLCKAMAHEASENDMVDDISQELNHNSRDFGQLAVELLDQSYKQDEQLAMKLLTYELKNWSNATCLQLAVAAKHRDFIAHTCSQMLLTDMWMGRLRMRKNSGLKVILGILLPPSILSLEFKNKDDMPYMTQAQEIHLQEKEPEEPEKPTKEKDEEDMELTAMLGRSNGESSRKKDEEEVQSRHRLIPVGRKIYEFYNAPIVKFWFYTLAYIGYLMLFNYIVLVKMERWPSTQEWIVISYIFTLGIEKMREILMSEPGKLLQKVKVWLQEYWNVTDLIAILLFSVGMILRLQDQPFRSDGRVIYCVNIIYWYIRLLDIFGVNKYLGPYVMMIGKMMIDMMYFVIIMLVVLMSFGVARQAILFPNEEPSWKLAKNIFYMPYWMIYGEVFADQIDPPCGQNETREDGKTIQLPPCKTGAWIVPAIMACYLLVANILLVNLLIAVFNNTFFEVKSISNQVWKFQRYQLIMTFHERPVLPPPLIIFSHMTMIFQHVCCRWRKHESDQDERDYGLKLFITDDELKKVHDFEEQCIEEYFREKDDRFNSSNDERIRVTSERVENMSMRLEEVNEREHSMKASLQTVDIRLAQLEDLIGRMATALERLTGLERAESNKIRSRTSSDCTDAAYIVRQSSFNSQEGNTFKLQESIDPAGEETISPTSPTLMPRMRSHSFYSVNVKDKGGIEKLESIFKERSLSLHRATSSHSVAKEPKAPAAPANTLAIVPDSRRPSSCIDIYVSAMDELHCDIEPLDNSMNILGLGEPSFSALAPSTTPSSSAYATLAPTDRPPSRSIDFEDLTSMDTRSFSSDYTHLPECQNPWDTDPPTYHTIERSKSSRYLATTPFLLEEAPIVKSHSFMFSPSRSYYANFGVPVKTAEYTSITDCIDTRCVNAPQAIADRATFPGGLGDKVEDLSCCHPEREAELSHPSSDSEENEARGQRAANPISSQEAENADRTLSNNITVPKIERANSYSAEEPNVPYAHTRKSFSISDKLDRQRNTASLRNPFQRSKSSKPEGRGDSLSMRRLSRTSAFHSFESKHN

Row | IC50 [µM] | SMILES
1 | < 1 | Cc1oc2ccc(OCc3cccnc3C(F)(F)F)cc2c1C(=O)NC1(C(N)=O)CC1 [compound 475, N-(1-carbamoylcyclopropyl)-2-methyl-5-((2-(trifluoromethyl)pyridin-3-yl)methoxy)benzofuran-3-carboxamide]
2 | < 1 | Cc1ncc(COc2ccc3oc(C)c(C(=O)NC4(C(N)=O)CC4)c3c2)s1 [compound 476, N-(1-carbamoylcyclopropyl)-2-methyl-5-((2-methylthiazol-5-yl)methoxy)benzofuran-3-carboxamide]
3 | < 1 | Cc1ncsc1COc1ccc2oc(C)c(C(=O)NC3(C(N)=O)CC3)c2c1 [compound 477, N-(1-carbamoylcyclopropyl)-2-methyl-5-((4-methylthiazol-5-yl)methoxy)benzofuran-3-carboxamide]
4 | < 1 | Cc1oc2ccc(OCc3ccccn3)cc2c1C(=O)NC1(C(N)=O)CC1 [compound 478, N-(1-carbamoylcyclopropyl)-2-methyl-5-(pyridin-2-ylmethoxy)benzofuran-3-carboxamide]
5 | < 1 | COc1ncccc1COc1ccc2oc(C)c(C(=O)NC3(C(N)=O)CC3)c2c1 [compound 480, N-(1-carbamoylcyclopropyl)-5-((2-methoxypyridin-3-yl)methoxy)-2-methylbenzofuran-3-carboxamide]
6 | < 1 | Cc1oc2ccc(OCc3nccn3C)cc2c1C(=O)NC(C)(C)CO [compound 481, N-(1-hydroxy-2-methylpropan-2-yl)-2-methyl-5-((1-methyl-1H-imidazol-2-yl)methoxy)benzofuran-3-carboxamide]
7 | < 1 | Cc1oc2ccc(OCc3ccnn3C)cc2c1C(=O)NC(C)(C)CO [compound 482, N-(1-hydroxy-2-methylpropan-2-yl)-2-methyl-5-((1-methyl-1H-pyrazol-5-yl)methoxy)benzofuran-3-carboxamide]
8 | < 1 | Cc1ncc(COc2ccc3oc(C)c(C(=O)NC(C)(C)CO)c3c2)s1 [compound 483, N-(1-hydroxy-2-methylpropan-2-yl)-2-methyl-5-((2-methylthiazol-5-yl)methoxy)benzofuran-3-carboxamide]
9 | < 1 | Cc1oc2ccc(OCc3ccccn3)cc2c1C(=O)NC(C)(C)CO [compound 484, N-(1-hydroxy-2-methylpropan-2-yl)-2-methyl-5-(pyridin-2-ylmethoxy)benzofuran-3-carboxamide]
10 | < 1 | Cc1oc2ccc(OCc3cccnc3O)cc2c1C(=O)NC(C)(C)CO [compound 485, N-(1-hydroxy-2-methylpropan-2-yl)-5-((2-hydroxypyridin-3-yl)methoxy)-2-methylbenzofuran-3-carboxamide]
11 | < 1 | COc1ncccc1COc1ccc2oc(C)c(C(=O)NC(C)(C)CO)c2c1 [compound 486, N-(1-hydroxy-2-methylpropan-2-yl)-5-((2-methoxypyridin-3-yl)methoxy)-2-methylbenzofuran-3-carboxamide]
12 | < 1 | Cc1oc2ccc(OCc3ccccn3)cc2c1C(=O)N[C@@H](C)CO [compound 492, (S)-N-(1-hydroxypropan-2-yl)-2-methyl-5-(pyridin-2-ylmethoxy)benzofuran-3-carboxamide]
13 | < 1 | Cc1oc2ccc(OCc3ccccn3)cc2c1C(=O)N[C@H](C)CO [compound 493, (R)-N-(1-hydroxypropan-2-yl)-2-methyl-5-(pyridin-2-ylmethoxy)benzofuran-3-carboxamide]
14 | < 1 | Cc1oc2ccc(OCc3cccnc3O)cc2c1C(=O)N[C@@H](C)CO [compound 494, (S)-N-(1-hydroxypropan-2-yl)-5-((2-hydroxypyridin-3-yl)methoxy)-2-methylbenzofuran-3-carboxamide]
15 | < 1 | Cc1oc2ccc(OCc3cccnc3O)cc2c1C(=O)N[C@H](C)CO [compound 495, (R)-N-(1-hydroxypropan-2-yl)-5-((2-hydroxypyridin-3-yl)methoxy)-2-methylbenzofuran-3-carboxamide]
16 | < 1 | COc1ncccc1COc1ccc2oc(C)c(C(=O)N[C@@H](C)CO)c2c1 [compound 496, (S)-N-(1-hydroxypropan-2-yl)-5-((2-methoxypyridin-3-yl)methoxy)-2-methylbenzofuran-3-carboxamide]
17 | < 1 | COc1ncccc1COc1ccc2oc(C)c(C(=O)N[C@H](C)CO)c2c1 [compound 497, (R)-N-(1-hydroxypropan-2-yl)-5-((2-methoxypyridin-3-yl)methoxy)-2-methylbenzofuran-3-carboxamide]
18 | < 1 | Cc1ncsc1COc1ccc2oc(C)c(C(=O)NCC(F)F)c2c1 [compound 498, N-(2,2-difluoroethyl)-2-methyl-5-((4-methylthiazol-5-yl)methoxy)benzofuran-3-carboxamide]
19 | < 1 | Cc1ncc(COc2ccc3oc(C)c(C(=O)NCC(C)(F)F)c3c2)s1 [compound 499, N-(2,2-difluoropropyl)-2-methyl-5-((2-methylthiazol-5-yl)methoxy)benzofuran-3-carboxamide]

Same assay, conditions: PS (50 μM) stimulated, cpds. 500-599

Row | SMILES | IC50 [µM]
20 | Cc1ncsc1COc1ccc2oc(C)c(C(=O)NCC(C)(F)F)c2c1 [compound 500, N-(2,2-difluoropropyl)-2-methyl-5-((4-methylthiazol-5-yl)methoxy)benzofuran-3-carboxamide] | < 1
21 | CC(=O)NCCNC(=O)c1c(C)oc2ccc(OCc3scnc3C)cc12 [compound 501, N-(2-acetamidoethyl)-2-methyl-5-((4-methylthiazol-5-yl)methoxy)benzofuran-3-carboxamide] | < 1

Further lines, results first:

Row | IC50 [µM] | SMILES
22 | < 1 | Cc1ncc(COc2ccc3oc(C)c(C(=O)NCC(C)(C)F)c3c2)s1 [compound 504, N-(2-fluoro-2-methylpropyl)-2-methyl-5-((2-methylthiazol-5-yl)methoxy)benzofuran-3-carboxamide]
23 | < 1 | Cc1ncsc1COc1ccc2oc(C)c(C(=O)NCC(C)(C)F)c2c1 [compound 505, N-(2-fluoro-2-methylpropyl)-2-methyl-5-((4-methylthiazol-5-yl)methoxy)benzofuran-3-carboxamide]
24 | < 1 | Cc1ncsc1COc1ccc2oc(C)c(C(=O)NCC(C)(C)O)c2c1 [compound 506, N-(2-hydroxy-2-methylpropyl)-2-methyl-5-((4-methylthiazol-5-yl)methoxy)benzofuran-3-carboxamide]
25 | < 1 | Cc1ncsc1COc1ccc2oc(C)c(C(=O)NC(=O)C3(N(C)C)COC3)c2c1 [compound 508, N-(3-(dimethylamino)oxetane-3-carbonyl)-2-methyl-5-((4-methylthiazol-5-yl)methoxy)benzofuran-3-carboxamide]
26 | < 1 | Cc1ncsc1COc1ccc2oc(C)c(C(=O)NC3(C(=O)N(C)C)COC3)c2c1 [compound 509, N-(3-(dimethylcarbamoyl)oxetan-3-yl)-2-methyl-5-((4-methylthiazol-5-yl)methoxy)benzofuran-3-carboxamide]
27 | < 1 | Cc1oc2ccc(OCc3ccnn3C)cc2c1C(=O)NC1(CO)COC1 [compound 524, N-(3-(hydroxymethyl)oxetan-3-yl)-2-methyl-5-((1-methyl-1H-pyrazol-5-yl)methoxy)benzofuran-3-carboxamide]
28 | < 1 | Cc1ncc(COc2ccc3oc(C)c(C(=O)NC4(CO)COC4)c3c2)s1 [compound 525, N-(3-(hydroxymethyl)oxetan-3-yl)-2-methyl-5-((2-methylthiazol-5-yl)methoxy)benzofuran-3-carboxamide]
29 | < 1 | Cc1oc2ccc(OCc3ccccn3)cc2c1C(=O)NC1(CO)COC1 [compound 526, N-(3-(hydroxymethyl)oxetan-3-yl)-2-methyl-5-(pyridin-2-ylmethoxy)benzofuran-3-carboxamide]
30 | < 1 | Cc1oc2ccc(OCc3nccs3)cc2c1C(=O)NC1(CO)COC1 [compound 527, N-(3-(hydroxymethyl)oxetan-3-yl)-2-methyl-5-(thiazol-2-ylmethoxy)benzofuran-3-carboxamide]
31 | < 1 | COc1ncccc1COc1ccc2oc(C)c(C(=O)NC3(CO)COC3)c2c1 [compound 528, N-(3-(hydroxymethyl)oxetan-3-yl)-5-((2-methoxypyridin-3-yl)methoxy)-2-methylbenzofuran-3-carboxamide]
32 | < 1 | Cc1ncsc1COc1ccc2oc(C)c(C(=O)N(C)C3(CO)COC3)c2c1 [compound 529, N-(3-(hydroxymethyl)oxetan-3-yl)-N.2-dimethyl-5-((4-methylthiazol-5-yl)methoxy)benzofuran-3-carboxamide]
33 | < 1 | Cc1ncsc1COc1ccc2oc(C)c(C(=O)NC3(CO)CC(F)(F)C3)c2c1 [compound 537, N-(3,3-difluoro-1-(hydroxymethyl)cyclobutyl)-2-methyl-5-((4-methylthiazol-5-yl)methoxy)benzofuran-3-carboxamide]
34 | < 1 | Cc1ncsc1COc1ccc2oc(C)c(C(=O)NCCC(F)F)c2c1 [compound 574, N-(3,3-difluoropropyl)-2-methyl-5-((4-methylthiazol-5-yl)methoxy)benzofuran-3-carboxamide]
35 | < 1 | Cc1ncsc1COc1ccc2oc(C)c(C(=O)NCC(C)(C)C(N)=O)c2c1 [compound 576, N-(3-amino-2,2-dimethyl-3-oxopropyl)-2-methyl-5-((4-methylthiazol-5-yl)methoxy)benzofuran-3-carboxamide]
36 | < 1 | Cc1ncsc1COc1ccc2oc(C(F)F)c(C(=O)NC3(C(N)=O)COC3)c2c1 [compound 577, N-(3-carbamoyloxetan-3-yl)-2-(difluoromethyl)-5-((4-methylthiazol-5-yl)methoxy)benzofuran-3-carboxamide]
37 | < 1 | Cc1oc2ccc(OCc3ccnn3C)cc2c1C(=O)NC1(C(N)=O)COC1 [compound 579, N-(3-carbamoyloxetan-3-yl)-2-methyl-5-((1-methyl-1H-pyrazol-5-yl)methoxy)benzofuran-3-carboxamide]
38 | < 1 | Cc1ncc(COc2ccc3oc(C)c(C(=O)NC4(C(N)=O)COC4)c3c2)s1 [compound 580, N-(3-carbamoyloxetan-3-yl)-2-methyl-5-((2-methylthiazol-5-yl)methoxy)benzofuran-3-carboxamide]
